Data on 4 compounds can be found in patent US9757457B2, “Use of 2-deoxy-D-glucose to sensitize cancer cells to an agent that activates the extrinsic apoptotic pathway” (The Board of Trustees of the University of Illinois, priority 2013, dated 2017).

In one data set the test system is HT29 cells. Briefly: Tumor cell apoptosis in HT29 colon cancer cells (Annexin V flow cytometry; caspase-3 activation). It is filed as cell-based, human. The following applies: for tumor cell apoptosis: HT29 cells, any dose, Annexin V staining, flow cytometry. On the procedure:
FIG. 2A, HT-29 cells were treated with a general caspase inhibitor (Q-VD-OPh) and simultaneously treated with the indicated compounds. Apoptosis was assessed by Annexin V/PI staining. FIG. 2B, HT-29 cells were stably transfected with CrmA, DN-FADD plasmid constructs (a dominant-negative variant of FAS-associated via death domain protein) or an empty vector. These cell lines, as well as untransfected cells, were then treated with the indicated compounds and apoptosis was assessed by Annexin V/PI staining. n=3, * indicates p<0.05, ** indicates p<0.01, ns indicates p>0.05.
(§1) While this makes TRAIL a promising anti-cancer therapy, there are numerous examples of both inherent and acquired resistance to TRAIL treatment. […] It was posited that this may have been due to either inherent or acquired TRAIL resistance. Therefore, a panel of well-established human colorectal tumor cell lines (HT-29, COLO-205 and SW-620) was analyzed to determine TRAIL sensitivity. […] Therefore, this human cell line was selected for use as a model for in vitro experiments.
To assess the effect of 2DG on HT29 cells, HT29 cells were treated with increasing doses (0-50 mM) of 2DG in vitro.
(§2) To assess the effect of TRAIL on colon (HT29, COLO-205, SW-620), gastric (AGS) and pancreatic (PANC-1) cancer cell lines, cells were treated with increasing doses (0, 6.25, 12.5, 25, 50 and 100 ng/mL) of TRAIL in vitro.
To determine the mechanism of apoptosis, HT-29 and SW-620 cells were treated every 6 hours with 2DG, TRAIL or 2DG and TRAIL. […] HT-29 cells were also fractionated into cytoplasmic and membrane-heavy fractions, with COXIV as a marker of the membrane heavy fraction and beta actin as a loading control.
(§3) TRAIL mediates its effects by binding to cell surface death receptors 4 and 5 (DR4, DR5). This initiates the extrinsic apoptosis pathway ultimately resulting in cell death. Therefore, it was determined whether 2DG primes tumor cells to TRAIL by altering DR expression in HT29 cells. […] By comparison, DR4 levels were unchanged by 2DG treatment. In addition, increased surface expression of DR5 correlated with TRAIL sensitivity over time.

Another data set concerns DR5. As to the kind of experiment: Death receptor expression in HT29 cells after 2DG: DR5. The class given is cell-based, human. The conditions noted are these: HT29 cells after treatment with 2DG. On the procedure: as §3
A further data set concerns DR4. Briefly: Death receptor expression in HT29 cells after 2DG: DR4. The class given is cell-based, human. The following applies: HT29 cells after treatment with 2DG. On the procedure: as §3
For data set [1] the following is noted: clinical trials; cited from earlier work.
In the next data set the test system is COLO-205. Briefly: Tumor cell apoptosis in COLO-205 colon cancer cells (Annexin V flow cytometry). The following applies: TRAIL 0-100 ng/mL, any dose, Annexin V staining. It is filed as cell-based, human. How it is done:
as §1, §2

The next data set has as its system SW-620. As to the kind of experiment: Tumor cell apoptosis in SW-620 colon cancer cells (Annexin V flow cytometry; caspase-3 activation). The following applies: TRAIL 0-100 ng/mL, any dose, Annexin V staining. The class given is cell-based, human. On the procedure: as §1, §2
Background: In flow cytometry, cells or beads pass a laser one at a time.

Data set [2] concerns AGS gastric cancer cell line. As to the kind of experiment: Tumor cell apoptosis in AGS gastric cancer cell line (Annexin V flow cytometry; caspase-3 activation). The following applies: TRAIL 0-100 ng/mL, any dose, Annexin V staining. The class given is cell-based. How it is done:
as §2

The subject of data set [3] is PANC-1 pancreatic cancer cell line. Briefly: Tumor cell apoptosis in PANC-1 pancreatic cancer cell line (Annexin V flow cytometry; caspase-3 activation). It is filed as cell-based. The conditions noted are these: TRAIL 0-100 ng/mL, any dose, Annexin V staining. How it is done: as §2
The test system of data set [4] is human cancer patients with various tumor histologies. The following applies: phase I trial, cited from earlier work.

As to `OCC1OC(O)CC(O)[C@@H]1O` (stereo in doubt) [2DG, 2-deoxy-D-glucose], in the data set with HT29 cells (2DG 0-50 mM), the tumor cell apoptosis was at most 5%. Also, in the data set with DR5, the “DR5 mRNA level” value is “upregulated” and the “DR5 total protein level” value was “upregulated”. Moreover, the DR4 levels result in the data set on DR4 is given as “unchanged”. In [1], the tolerability result is listed as “well-tolerated”.
As for `CC(=O)N[C@@H](CS)C(=O)O` [N-acetylcysteine], the “effect on cytotoxicity of 2DG and oxaliplatin” value with human colon cancer cells is “can abrogate this cytotoxicity”.
For `CC(C)[C@H](NC(=O)c1ccc2ccccc2n1)C(=O)N[C@@H](CC(=O)O)C(=O)COc1c(F)cccc1F` [Q-VD-OPh], the “effect of caspase blockade on anti-tumor effect of 2DG and TRAIL” value in the data set with HT29 cells (HT-29, simultaneous treatment with 2DG and TRAIL, Annexin V/PI staining, FIG. 2A) is given as “inhibited the anti-tumor effect of the combination treatment”.
Turning to “TRAIL: TNF-related apoptosis-inducing ligand; cytokine that causes apoptosis by binding death receptors DR4 and DR5”, the tumor cell apoptosis (with HT29 cells (TRAIL 0-100 ng/mL); in the data set on COLO-205; in the data set with SW-620; in [2]; in data set [3]) was at most 12% each time. Moreover, in the data set on HT29 cells (HT-29 cell line, maximal doses), the “TRAIL sensitivity (TRAIL-induced apoptosis)” value is on record as “resistance to TRAIL at even maximal doses”. Moreover, in [4], the tolerability result is “well-tolerated”. Also, the objective tumor response entry in data set [4] (patients with colorectal cancer) was “none of the patients with colorectal cancer had an objective tumor response”.
